Measured values published in patent publication US20070128217A1 (priority 2003, published 2007).

How the values were obtained:
[1] = system: antibodies in sera from SARS patients (sera 1a, 1b, 2, 6, 37, 62, London, SARS-yellow, SARS-green); type: binding, human; design: Binding of serum 6 to linear peptides of protein X1 of SARS-CoV Urbani / Binding of serum 37 to linear peptides of protein X1 of SARS-CoV Urbani / Binding of serum 6 to looped/cyclic peptide (PEPSCAN-ELISA) / Binding of serum 37 to looped/cyclic peptide (PEPSCAN-ELISA) / Binding of serum 37 to looped/cyclic peptides of protein X1 of SARS-CoV Urbani / Binding of serum 6 to linear peptides of protein X2 / Binding of serum 37 to linear peptides of protein X2 / Binding of serum 37 to looped/cyclic peptides of protein X2 of SARS-CoV Urbani / Binding of serum 6 to linear peptides of protein M of SARS-CoV Urbani / Binding of serum 37 to linear peptides of protein M of SARS-CoV Urbani / Binding of serum 6 to looped/cyclic peptides of protein M of SARS-CoV Urbani / Binding of serum 37 to looped/cyclic peptides of protein M of SARS-CoV Urbani / Binding of serum 6 to linear peptides of protein X3 of SARS-CoV Urbani / Binding of serum 37 to linear peptides of protein X3 of SARS-CoV Urbani / Binding of serum 37 to looped/cyclic peptides of protein X3 of SARS-CoV Urbani / Binding of serum 6 to linear peptides of protein X4 of SARS-CoV Urbani / Binding of serum 37 to linear peptides of protein X4 of SARS-CoV Urbani / Binding of serum 37 to looped/cyclic peptides of protein X4 of SARS-CoV Urbani / Binding of serum 6 to linear peptides of protein X5 of SARS-CoV Urbani / Binding of serum 37 to linear peptides of protein X5 of SARS-CoV Urbani / Binding of serum 37 to looped/cyclic peptides of protein X5 of SARS-CoV Urbani / Binding of serum 6 to linear peptides of protein N of SARS-CoV Urbani / Binding of serum 37 to linear peptides of protein N of SARS-CoV Urbani / Binding of serum 6 to linear peptide (PEPSCAN-ELISA) / Binding of serum 1a to looped/cyclic peptides of protein N of SARS-CoV Urbani / Binding of serum 1b to looped/cyclic peptides of protein N of SARS-CoV Urbani / Binding of serum 2 to looped/cyclic peptides of protein N of SARS-CoV Urbani / Binding of serum 6 to looped/cyclic peptides of protein N of SARS-CoV Urbani / Binding of serum 37 to looped/cyclic peptides of protein N of SARS-CoV Urbani / Binding of serum 62 to looped/cyclic peptides of protein N of SARS-CoV Urbani / Binding of serum London to looped/cyclic peptides of protein N of SARS-CoV Urbani / Binding of serum SARS-green to looped/cyclic peptides of protein N of SARS-CoV Urbani: unit not given here
[2] = system: control sera (pooled serum of ten healthy LUMC hospital workers; commercial negative donor pooled serum from the Dutch bloodbank); type: binding, human; design: Binding of Control serum LUMC to linear peptides / Binding of Control serum Blood-bank to linear peptides / Binding of Control serum LUMC to looped peptides / Binding of Control Serum Blood-Bank to Looped peptides / Binding of Control serum LUMC to linear peptides of the protein M of SARS-CoV Urbani / Binding of Control serum Blood-bank to linear peptides of the protein M of SARS-CoV Urbani / Binding of Control serum LUMC to looped peptides of the protein M of SARS-CoV Urbani / Binding of Control Serum Blood-Bank to Looped peptides of the protein M of SARS-CoV Urbani: unit not given here
[3] = system: rabbit serum obtained by immunizing a rabbit with the SARS-CoV strain Frankfurt 1; type: binding; design: Binding of a rabbit serum to linear peptides / Binding of a rabbit serum to looped peptides / Rabbit serum linear peptides / Rabbit serum looped peptides / Binding of a rabbit serum to linear peptides of protein N of SARS-CoV Urbani (Rabbit serum linear peptides) / Binding of a rabbit serum to looped/cyclic peptides of protein N of SARS-CoV Urbani (Rabbit serum looped peptides): unit not given here

Sequence | Binding of serum 1a to looped/cyclic peptides of protein X2 of SARS-CoV Urbani [1] | Binding of serum 1b to looped/cyclic peptides of protein X2 of SARS-CoV Urbani [1] | Binding of serum 2 to looped/cyclic peptides of protein X2 of SARS-CoV Urbani [1] | Binding of serum 6 to looped/cyclic peptides of protein X2 of SARS-CoV Urbani [1] | Binding of serum 37 to looped/cyclic peptides of protein X2 of SARS-CoV Urbani [1] | Binding of serum 62 to looped/cyclic peptides of protein X2 of SARS-CoV Urbani [1] | Binding of serum London to looped/cyclic peptides of protein X2 of SARS-CoV Urbani [1] | Binding of serum SARS-green to looped/cyclic peptides of protein X2 of SARS-CoV Urbani [1] | Binding of serum SARS-yellow to looped/cyclic peptides of protein X2 of SARS-CoV Urbani [1] | Recognition of the peptide by sera of SARS-CoV infected individuals, and form (linear, looped/cyclic) in which it is recognized [1] | Binding of Control Serum Blood-Bank to Looped peptides [2] | Binding of Control serum Blood-bank to linear peptides [2] | Binding of Control serum LUMC to linear peptides [2] | Binding of Control serum LUMC to looped peptides [2] | Binding of a rabbit serum to linear peptides [3] | Binding of a rabbit serum to looped peptides [3] | other results
MMSRRRLLACLCKHK | 0.2 | 0.2 | 0.1 | 0.0 | 0.2 | 0.3 | 0.1 | 0.1 | 0.2 | recognized in linear form | 0.2 | 0.8 | 0.5 | 0.2 | 0.4 | 0.3 | 
MRCWLCWKCKSKNPL |  |  |  |  |  |  |  |  |  | recognized in linear form | 0.2 | 0.9 | 0.8 | 0.4 | 0.1 | 0.5 | Binding of serum 1a to looped/cyclic peptide (PEPSCAN-ELISA) [1]: 0.2; Binding of serum 1b to looped/cyclic peptide (PEPSCAN-ELISA) [1]: 0.2; Binding of serum 2 to looped/cyclic peptide (PEPSCAN-ELISA) [1]: 0.0; Binding of serum 6 to looped/cyclic peptide (PEPSCAN-ELISA) [1]: 0.1; Binding of serum 37 to looped/cyclic peptide (PEPSCAN-ELISA) [1]: 0.2; Binding of serum 62 to looped/cyclic peptide (PEPSCAN-ELISA) [1]: 0.3; Binding of serum London to looped/cyclic peptide (PEPSCAN-ELISA) [1]: 0.2; Binding of serum SARS-green to looped/cyclic peptide (PEPSCAN-ELISA) [1]: 0.1; Binding of serum SARS-yellow to looped/cyclic peptide (PEPSCAN-ELISA) [1]: 0.2
MSLYMAISPKFTTSL | 0.7 | 0.6 | 0.4 | 0.5 | 0.5 | 0.8 | 0.4 | 0.3 | 0.5 |  | 0.8 | 0.7 | 0.6 | 0.9 | 0.3 | 0.5 | Binding of serum 1a to linear peptides of protein X2 [1]: 0.8; Binding of serum 1b to linear peptides of protein X2 [1]: 0.7; Binding of serum 2 to linear peptides of protein X2 [1]: 0.4; Binding of serum 6 to linear peptides of protein X2 [1]: 0.3; Binding of serum 37 to linear peptides of protein X2 [1]: 0.6; Binding of serum 62 to linear peptides of protein X2 [1]: 0.6; Binding of serum London to linear peptides of protein X2 [1]: 0.4; Binding of serum SARS-green to linear peptides of protein X2 [1]: 0.5; Binding of serum SARS-yellow to linear peptides of protein X2 [1]: 0.3
